Holding throughout (format): cell-based
One test has as its system KhES-1_Rx::Venus cells. Nature of the test: Retinal differentiation induction with or without LDN-193189 addition (GFP and Chx10 expression). As for the experimental part:
• 1. KhES-1_Rx::Venus cells (KhES-1 cells obtained by knocking a GFP variant called Venus in the locus of a retinal marker Rx) that reached optimal confluence were collected by removing the medium and washed twice with 1 mL of PBS (−). • 2. The cells were incubated at 37° C. and 5% CO2 with 0.5×TrypLE™ Select added at 500 μL/well. • 3. After the 0.5×TrypLE™ Select was removed, PBS (−) was added to the well at 2 mL/well and the cells were peeled off by spraying PBS (−). • 4. The cells were collected into a 15 mL Falcon tube and the cell number was counted. • 5. The required number of cells (5×10^5 cells per dish) was transferred to another tube and centrifuged at 1000 rpm at 20° C. for 5 minutes. • 6. After the supernatant was removed, the cells were suspended with AK02N+Y to provide a cell suspension of 5×10^5 cells/200 μL AK02N+Y. • 7. The iMatrix coating solution within the PDMS sheet was removed with an aspirator and the cell suspension (5×10^5 cells/200 μL AK02N+Y) was added to the circle and incubated at 37° C. for 30 minutes. • 8. The PDMS sheet was removed from the dish with sterilized tweezers. • 9. The cells was cultured at 37° C. and 5% CO2 with 300 μL of AK02 N+Y added to the dish. <Day 1: Medium Replacement with AK02+PS> • 1. The whole medium was replaced with 1 mL of gfCDM (10% KSR) containing LDN-193189 (04-0074-02, ReproCELL Inc.) (hereinafter referred to as LDN). (final concentration of 100 nM LDN). […] Expressions of Chx10, Recoverin, FOXG1, Crx, Tuj1, Zo-1, and Pax6 were evaluated by immunostaining with primary antibodies specific for the respective markers and secondary antibodies suitable for the primary antibodies. The effect of LDN-193189, a BMP signaling inhibitor, on the differentiation induction was evaluated. […] Also, expressions of GFP and Chx10 at Day 18 were evaluated in the patterned and non-patterned cells with or without the LDN-193189 addition. The Chx10 expression was assessed by quantitative PCR (using HPRT1 as an endogenous control) and immunostaining.

Test [1] concerns human iPS cells (LPF11 line). Nature of the test: Duration of action of Y-27632 at cell seeding in patterning culture (LPF11 line). The note with it: for percentage of Chx10-positive areas on the sheet surface: ImageJ. As for the experimental part: The percentage of area covered by a retinal tissue on the region A may be measured by any methods, and for example, can be measured by staining the retinal tissue. For example, it is measured by staining expression of the retinal cell marker described above (such as Chx10) (e.g., by immunostaining with a fluorescently labeled anti-Chx10 antibody). Then, by using imaging software such as ImageJ software (NIH), the ratio of the area of the retinal cell marker-positive region to the area of the region A can be calculated.
(§1) For patterning, a droplet (1 cm in diameter) of a solution containing 0.785 μl of Laminin511-E8 (Nippi. Inc.) in 100 μl of PBS (Laminin51l-E8 concentration of 3.925 ng/μl) was made in the center of the wells of a 12-well plate (Iwaki, for cell culture, culture area 3.8 cm^2) and then incubated at 37° C. or room temperature for 1 to 3 hours to prepare 12-well-plates for patterning culture (Laminin511-E8: 0.5 μg/cm^2).
(§2) First, a 12-well plate for patterning culture prepared by the method described in Example 1 was provided, and subconfluent human iPS cells (LPF11 and DSP-SQ lines) were washed with PBS and dispersed into single cells using TrypLE Select (Life Technologies). The human iPS cells dispersed into single cells were then seeded into one well of the patterning culture plate at a density of 2.0×10^5 cells/cm^2 and cultured under feeder-free condition in Stemfit medium in the presence of Y-27632 (ROCK inhibitor, 10 μM). Then, after 2, 4, 8, 16, or 32 hours culture, the medium was replaced with 2 ml of StemFit medium without Y-27632.
(§3) The patterning culture was then performed as described in Example 1, and on Day 20 of seeding, cells were fixed with 4% paraformaldehyde and bright-field images were obtained with a fluorescence microscope (Keyence). […] The percentage of Chx10-positive areas on the sheet surface was calculated using ImageJ software (NIH) and was 91% for sheets with Y-27632 for 32 hours, compared to 97% or more for sheets with Y-27632 for 16 hours or less (16 hours: 97%, 8 hours: 99%, 4 hours: 98%, 2 hours: 99%).

In test [2] the test system is human iPS cells (DSP-SQ line). In words: Duration of action of Y-27632 at cell seeding in patterning culture (DSP-SQ line). The note with it: shortening the duration of action of Y-27632; Day 20; immunostaining. As for the experimental part: as §1
First, a 12-well plate for patterning culture prepared by the method described in Example 1 was provided, and subconfluent human iPS cells (LPF11 and DSP-SQ lines) were washed with PBS and dispersed into single cells using TrypLE Select (Life Technologies). […]
as §3

Test [3] concerns human iPS cells (LPF11 line). Nature of the test: BMP4 concentration for retinal differentiation by patterning culture (Rx immunostaining, real-time PCR). To be noted: Day 20. As for the experimental part:
as §2, with “line)” for “and DSP-SQ lines)”, “Two” for “Then, after 2, 4, 8, 16, or 32”, “later,” for “culture,”, “Y-27632 and patterning culture was performed as described in Example 1.” for “Y-27632.”
On Day 7 of patterning culture, the medium was replaced with serum-free medium (gfCDM+KSR) containing exogenous human recombinant BMP4 (R&D) at a final concentration of 0, 1.5, 3, 6, or 12 nM. Thereafter, half of the medium was replaced with serum-free medium (gfCDM+KSR) without human recombinant BMP4 every 2 to 3 days. […]
Total RNA was then extracted from the retinal tissue using a spin column (QIAGEN, RNeasy Micro kit) by the method described in the kit. The concentration of total RNA was measured by a measuring device (Nanodrop, Thermo scientific) and then reverse transcribed into cDNA using reverse transcriptase and primers (Reverse Transcription Master Mix Kit, Fluidigm). […] The Pre-Run reaction solutions were then injected into a flow-through multi-well (96. 96 Dynamic Array IFC, Fluidigm) using an IFC Controller HX (Fluidigm), and the expression levels of marker genes for neural retina and for by-products other than neural retina were determined by real-time PCR using a multi-sample real-time PCR system (Biomark HD, Fluidigm).
Specifically, the ΔCt value was calculated from the difference between the Ct value of the target gene and the Ct value of GAPDH, the gene used as the internal standard, and the ratio of expression level of each gene was calculated from the difference in ΔCt between samples (ΔΔCt).
On the technique in general: Real-time PCR tracks product formation cycle by cycle.

Consider three molecules from US20260218126A1, “METHOD FOR PRODUCING RETINAL TISSUE” (RACTHERA CO., LTD., priority 2023, published 2026).

Regarding `c1ccc2c(-c3cnn4cc(-c5ccc(N6CCNCC6)cc5)cnc34)ccnc2c1` [LDN-193189, 4-[6-(4-Piperazin-1-ylphenyl)pyrazolo[1,5-a]pyrimidin-3-yl]quinoline], the GFP expression entry is given as “uniform GFP expression” with KhES-1_Rx::Venus cells (Day 11, patterning culture, LDN-193189 100 nM from Day 3 to Day 8, compared to cells without LDN-193189) and “increased” in the test with KhES-1_Rx::Venus cells (Day 18, without patterning culture, with vs without LDN-193189 addition). In the test with KhES-1_Rx::Venus cells (Day 18, without patterning culture, quantitative PCR (HPRT1 control) and immunostaining, with vs without LDN-193189 addition), the Chx10 expression entry is given as “increased”.
Regarding `C[C@@H](N)[C@H]1CC[C@H](C(=O)Nc2ccncc2)CC1` [Y-27632], the “survival of human iPS cells after removing Y-27632” value in test [1] (Y-27632 10 μM for 2, 4, 8, 16 or 32 hours, LPF11 and DSP-SQ lines) is “survived”. The “percentage of Chx10-positive areas on the sheet surface” value is on record as 99% in test [1] (Y-27632 10 μM for 2 hours, Day 20); 98% in test [1] (Y-27632 10 μM for 4 hours, Day 20); 99% in test [1] (Y-27632 10 μM for 8 hours, Day 20); not below 97% in test [1] (Y-27632 10 μM for 16 hours or less, Day 20); 97% in test [1] (Y-27632 10 μM for 16 hours, Day 20); 91% in test [1] (Y-27632 10 μM for 32 hours, Day 20). For the same molecule, the “holes on the cell sheet surface” value in test [1] (longer duration of action of Y-27632 (2 to 32 hours), Day 20, bright-field) is listed as “the more holes were created”. Moreover, the “Chx10-negative areas on the sheet surface” value in test [2] was “fewer Chx10-negative areas”.

B1: BMP4: human recombinant BMP4 (R&D), BMP signaling activator (protein, UniProt P12644 293-408, looked up)
Bone morphogenetic protein 4: SPKHHSQRARKKNKNCRRHSLYVDFSDVGWNDWIVAPPGYQAFYCHGDCPFPLADHLNSTNHAIVQTLVNSVNSSIPKACCVPTELSAISMLYLDEYDKVVLKNYQEMVVEGCGCR
Consider B1, for which the “expression of retinal progenitor cell marker Rx (immunostaining)” value in test [3] (BMP4 3 to 12 nM compared to 1.5 nM) is on record as “more strongly expressed”. In addition, in test [3] (BMP4 3 to 12 nM compared to 1.5 nM, GAPDH internal standard), the “expression of retinal progenitor cell marker genes Chx10 and Rx (relative mRNA, real-time PCR)” value was “higher expression”. Besides, the “expression of Emx2, marker gene for unintended cells (relative mRNA, real-time PCR)” value in test [3] (BMP4 3 to 12 nM) was “low and suppressed expression”.
